From US20040248887A1, “Inhibitors of cathepsin S” (IRM LLC, priority 2003, published 2004)

molecular target: Cathepsin S (Homo sapiens, UniProt P25774); assay: Cathepsin S inhibition, fluorogenic peptide substrate kinetic assay; type: biochemical; conditions: Table II; Cathepsin S inhibition constant, pH5.5; read-out: Ki Cat. S
How it was run: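 Reactions were started with 50 μM (final) acetyl-His-Pro-Val-Lys-aminocarbamoylcoumarin, and hydrolysis was followed by fluorescence (ex 380/em 450 nm). Apparent inhibition constants from enzyme progress curves were converted to Ki for competitive inhibitors using substrate concentration and Km.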

Cathepsin S, sequence (P25774 115-331, species assumed): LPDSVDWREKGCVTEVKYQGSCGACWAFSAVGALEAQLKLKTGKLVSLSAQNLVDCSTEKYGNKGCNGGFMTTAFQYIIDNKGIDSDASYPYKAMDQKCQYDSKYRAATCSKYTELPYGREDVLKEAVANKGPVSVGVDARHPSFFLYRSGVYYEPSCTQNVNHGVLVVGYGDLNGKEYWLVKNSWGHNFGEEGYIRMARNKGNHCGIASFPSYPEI

Row | Ki [µM] | SMILES
1 | < 0.1 | O=C(NCCN1CCc2cc(F)ccc21)[C@H](CC1CCCCC1)NS(=O)(=O)c1ccc(-c2cnco2)cc1 [Compound 246, (S)-3-Cyclohexyl-N-[2-(5-fluoro-2,3-dihydro-indol-1-yl)-ethyl]-2-(4-oxazol-5-yl-benzenesulfonylamino)-propionamide]
2 | < 0.1 | C[C@@H](CNc1ccc(OC(F)(F)F)cc1)NC(=O)[C@H](CC1CCCCC1)NS(=O)(=O)c1cccnc1 [Compound 183, (S,S)-3-Cyclohexyl-N-[1-methyl-2-(4-trifluoromethoxy-phenylamino)-ethyl]-2-(pyridine-3-sulfonylamino)-propionamide]
3 | < 0.1 | CC(C)(C)C[C@H](NC(=O)OC(C)(C)C)C(=O)N[C@@H](COCc1ccccc1)CN1CCc2cc(F)ccc21 [Compound 154, {1-(S)-[1-(R)-Benzyloxymethyl-2-(5-fluoro-2,3-dihydro-indol-1-yl)-ethylcarbamoyl]-3,3-dimethyl-butyl}-carbamic acid tert-butyl ester]
4 | < 0.1 | C[C@@H](CNc1ccc(OC(F)(F)F)cc1)NC(=O)[C@H](CC1CCCCC1)NC(=O)C1CCOC1 (mixture of isomers) [Compound 272, Tetrahydrofuran-3-(R,S)-carboxylic acid {2-cyclohexyl-1-(S)-[1-(S)-methyl-2-(4-trifluoromethoxy-phenylamino)-ethylcarbamoyl]-ethyl}-amide]
5 | < 0.1 | COc1cccc(C(=O)N[C@@H](CC(C)(C)C)C(=O)N[C@@H](COCc2ccccc2)CN2CCc3cc(F)ccc32)c1 [Compound 155, N-{1-(S)-[1-(R)-Benzyloxymethyl-2-(5-fluoro-2,3-dihydro-indol-1-yl)-ethylcarbamoyl]-3,3-dimethyl-butyl}-3-methoxy-benzamide]
6 | < 0.1 | C[C@@H](CNc1ccc(OC(F)(F)F)cc1)NC(=O)[C@H](CC1CCCCC1)NC(=O)c1cc(-c2ccc(F)cc2)no1 [Compound 146, 3-(4-Fluoro-phenyl)-isoxazole-5-carboxylic acid {2-cyclohexyl-1-(S)-[1-(S)-methyl-2-(4-trifluoromethoxy-phenylamino)-ethylcarbamoyl]-ethyl}-amide]
7 | < 1 | COc1cccc(S(=O)(=O)N[C@@H](CC2CCCCC2)C(=O)NCCN2CCc3cc(F)ccc32)c1 [Compound 245, (S)-3-Cyclohexyl-N-[2-(5-fluoro-2,3-dihydro-indol-1-yl)-ethyl]-2-(3-methoxy-benzenesulfonylamino)-propionamide]
8 | < 0.1 | C[C@@H](CN1c2ccc(F)cc2CC1(C)C)NC(=O)[C@H](CC1CCCCC1)NC(=O)C1CCOCC1 [Compound 139, Tetrahydropyran-4-carboxylic acid {2-cyclohexyl-1-(S)-[2-(5-fluoro-2,2-dimethyl-2,3-dihydro-indol-1-yl)-1-(S)-methyl-ethylcarbamoyl]-ethyl}-amide]
9 | < 1 | C[C@@H](CNc1ccc(OC(F)(F)F)cc1)NC(=O)[C@H](CC1CCCCC1)NC(=O)c1cc(-c2cccc(F)c2)no1 [Compound 145, 3-(3-Fluoro-phenyl)-isoxazole-5-carboxylic acid {2-cyclohexyl-1-(S)-[1-(S)-methyl-2-(4-trifluoromethoxy-phenylamino)-ethylcarbamoyl]-ethyl}-amide]
10 | < 1 | Cc1cccc(C(=O)N[C@@H](Cc2ccccc2)C(=O)NCCN2CCc3cc(F)ccc32)c1 [Compound 205, N-((S)-1-(2-(5-fluoroindolin-1-yl)ethylcarbamoyl)-2-phenylethyl)-3-methylbenzamide]
11 | < 0.1 | Cc1cccc(S(=O)(=O)N[C@@H](CC(C)(C)C)C(=O)N[C@@H](C)CN2CCc3cc(F)ccc32)c1 [Compound 265, (S,S)-4,4-Dimethyl-2-(toluene-3-sulfonylamino)-pentanoic acid [2-(5-fluoro-2,3-dihydro-indol-1-yl)-1-methyl-ethyl]-amide]
12 | < 1 | COc1ccc(S(=O)(=O)N[C@@H](CC2CCCCC2)C(=O)NCCN2CCc3cc(F)ccc32)cc1 [Compound 239, (S)-3-Cyclohexyl-N-[2-(5-fluoro-2,3-dihydro-indol-1-yl)-ethyl]-2-(4-methoxy-benzenesulfonylamino)-propionamide]
13 | < 10 | O=C(NCCN1CCc2cc(F)ccc21)[C@H](CC1CCCCC1)NS(=O)(=O)Cc1ccccc1 [Compound 242, (S)-3-Cyclohexyl-N-[2-(5-fluoro-2,3-dihydro-indol-1-yl)-ethyl]-2-phenylmethanesulfonylamino-propionamide]
14 | < 0.1 | C[C@@H](CN1CCc2cc(F)ccc21)NC(=O)[C@H](CC(C)(C)C)NC(=O)OCc1ccccc1 [Compound 176, {1-(S)-[2-(5-Fluoro-2,3-dihydro-indol-1-yl)-1-(S)-methyl-ethylcarbamoyl]-3,3-dimethyl-butyl}-carbamic acid benzyl ester]
15 | < 1 | Cc1cccc(C(=O)NC(C(=O)NCCN2CCc3cc(F)ccc32)c2ccc(Cl)cc2Cl)c1 (racemic) [Compound 213, (R,S)-N-((2-(5-fluoroindolin-1-yl)ethylcarbamoyl)(2,4-dichlorophenyl)methyl)-3-methylbenzamide]
16 | < 0.1 | C[C@@H](CNc1ccc2c(c1)C(=O)OC2)NC(=O)[C@H](CC1CCCCC1)NC(=O)c1ccc(-c2cccc(F)c2)o1 [Compound 137, 5-(3-Fluoro-phenyl)-furan-2-carboxylic acid {2-cyclohexyl-1-(S)-[1-(S)-methyl-2-(3-oxo-1,3-dihydro-isobenzofuran-5-ylamino)-ethylcarbamoyl]-ethyl}-amide]
17 | < 1 | O=C(NCCN1CCc2cc(F)ccc21)[C@H](CC1CCCCC1)NS(=O)(=O)c1cccs1 [Compound 235, (S)-3-Cyclohexyl-N-[2-(5-fluoro-2,3-dihydro-indol-1-yl)-ethyl]-2-(thiophene-2-sulfonylamino)-propionamide]

The remaining lines, values behind:

Row | SMILES | Ki [µM]
18 | COCC(=O)N[C@@H](CC1CCCCC1)C(=O)N[C@@H](C)CNc1ccc(OC(F)(F)F)cc1 [Compound 124, 3-Cyclohexyl-2-(S)-(2-methoxy-acetylamino)-N-[1-(S)-methyl-2-(4-trifluoromethoxy-phenylamino)-ethyl]-propionamide] | < 0.1
19 | C[C@@H](CNc1cc(F)ccc1Cl)NC(=O)[C@H](CC1CCCCC1)NC(=O)c1ccc(-c2cccc(F)c2)o1 [Compound 112, 5-(3-Fluoro-phenyl)-furan-2-carboxylic acid {1-(S)-[2-(2-chloro-5-fluoro-phenylamino)-1-(S)-methyl-ethylcarbamoyl]-2-cyclohexyl-ethyl}-amide] | < 1
20 | O=C(N[C@@H](CC1CCCCC1)C(=O)NCCN1CCc2cc(F)ccc21)C1CC1 [Compound 14, Cyclopropanecarboxylic acid (S)-{2-cyclohexyl-1-[2-(5-fluoro-2,3-dihydro-indol-1-yl)-ethylcarbamoyl]-ethyl}-amide] | < 0.1
21 | C[C@@H](CNc1ccc(OC(F)F)cc1)NC(=O)[C@H](CC1CCCCC1)NC(=O)c1ccc(-c2ccc(F)cc2)o1 [Compound 104, 5-(4-Fluoro-phenyl)-furan-2-carboxylic acid {2-cyclohexyl-1-(S)-[2-(4-difluoromethoxy-phenylamino)-1-(S)-methyl-ethylcarbamoyl]-ethyl}-amide] | < 0.1
22 | COc1ccc(NC[C@H](C)NC(=O)[C@H](CC2CCCCC2)NC(=O)c2ccc(-c3cccc(F)c3)o2)cc1 [Compound 86, 5-(3-Fluoro-phenyl)-furan-2-carboxylic acid {2-cyclohexyl-1-(S)-[2-(4-methoxy-phenylamino)-1-(S)-methyl-ethylcarbamoyl]-ethyl}-amide] | < 0.1
23 | C[C@@H](CNc1c(F)cccc1F)NC(=O)[C@H](CC1CCCCC1)NC(=O)c1ccc(-c2cccc(F)c2)o1 [Compound 92, 5-(3-Fluoro-phenyl)-furan-2-carboxylic acid {2-cyclohexyl-1-(S)-[2-(2,6-difluoro-phenylamino)-1-(S)-methyl-ethylcarbamoyl]-ethyl}-amide] | < 0.1
24 | COc1ccc(S(=O)(=O)N2CCC(C(=O)N[C@@H](CC3CCCCC3)C(=O)NCCN3CCc4cc(F)ccc43)CC2)cc1 [Compound 57, 1-(4-Methoxy-benzenesulfonyl)-piperidine-4-carboxylic acid (S)-{2-cyclohexyl-1-[2-(5-fluoro-2,3-dihydro-indol-1-yl)-ethylcarbamoyl]-ethyl}-amide] | < 1
25 | C[C@@H](CNc1ccccc1S(C)(=O)=O)NC(=O)[C@H](CC1CCCCC1)NC(=O)c1ccc(-c2cccc(F)c2)o1 [Compound 116, 5-(3-Fluoro-phenyl)-furan-2-carboxylic acid {2-cyclohexyl-1-(S)-[2-(2-methanesulfonyl-phenylamino)-1-(S)-methyl-ethylcarbamoyl]-ethyl}-amide] | < 0.1
26 | COc1cccc(C(=O)N[C@@H](Cc2ccc(F)cc2)C(=O)N[C@@H](COCc2ccccc2)CN2CCc3cc(F)ccc32)c1 [Compound 37, N-[1-(S)-[1-(R)-Benzyloxymethyl-2-(5-fluoro-2,3-dihydro-indol-1-yl)-ethylcarbamoyl]-2-(4-fluoro-phenyl)-ethyl]-3-methoxy-benzamide] | < 0.1
27 | Cc1cccc(C(=O)N[C@@H](CC(C)C)C(=O)N[C@@H](CCC(=O)O)CN2CCc3cc(F)ccc32)c1 [Compound 43, (S,S)-5-(5-Fluoro-2,3-dihydro-indol-1-yl)-4-[4-methyl-2-(3-methyl-benzoylamino)-pentanoylamino]-pentanoic acid] | < 0.1
28 | O=C(N[C@@H](CC1CCCCC1)C(=O)NCCN1CCc2cc(F)ccc21)C1CC(=O)N(Cc2ccco2)C1 (stereo partly drawn) [Compound 74, 1-Furan-2-ylmethyl-5-oxo-pyrrolidine-3-carboxylic acid (S)-{2-cyclohexyl-1-[2-(5-fluoro-2,3-dihydro-indol-1-yl)-ethylcarbamoyl]-ethyl}-amide] | < 1
29 | C[C@@H](CNc1ccc(OC(F)(F)F)cc1)NC(=O)[C@H](CC1CCCCC1)NC(=O)c1ccc(-c2ccc(F)cc2)o1 [Compound 103, 5-(4-Fluoro-phenyl)-furan-2-carboxylic acid {2-cyclohexyl-1-(S)-[1-(S)-methyl-2-(4-trifluoromethoxy-phenylamino)-ethylcarbamoyl]-ethyl}-amide] | < 0.1
